Results on 4 compounds are retold here after paper PMC5564600 (Oncotarget, 2017).

Common to all, as to assay: biochemical
Holding throughout (type): binding

Experiment [1] has as its target T1, panel of 442 kinases (Homo sapiens, UniProt P16591).
T1 construct: purchased Ambit Biosciences (scanMAXX KINOMEscan)
Conditions: FER; for remaining activity at 1 µM: read-out: % of control at 1 µM.

Experiment [2] addresses T2, panel of 442 kinases (Homo sapiens, UniProt P43405).
T2 construct: purchased Ambit Biosciences (scanMAXX KINOMEscan)
To be noted: kinase SYK; for remaining activity at 1 µM: read-out: SYK (% of control at 1 µM).

For experiment [3], the target named is T3, panel of 442 kinases (Homo sapiens, UniProt Q7L7X3).
T3 construct: purchased Ambit Biosciences (scanMAXX KINOMEscan)
T3 sequence (Q7L7X3 1-1001): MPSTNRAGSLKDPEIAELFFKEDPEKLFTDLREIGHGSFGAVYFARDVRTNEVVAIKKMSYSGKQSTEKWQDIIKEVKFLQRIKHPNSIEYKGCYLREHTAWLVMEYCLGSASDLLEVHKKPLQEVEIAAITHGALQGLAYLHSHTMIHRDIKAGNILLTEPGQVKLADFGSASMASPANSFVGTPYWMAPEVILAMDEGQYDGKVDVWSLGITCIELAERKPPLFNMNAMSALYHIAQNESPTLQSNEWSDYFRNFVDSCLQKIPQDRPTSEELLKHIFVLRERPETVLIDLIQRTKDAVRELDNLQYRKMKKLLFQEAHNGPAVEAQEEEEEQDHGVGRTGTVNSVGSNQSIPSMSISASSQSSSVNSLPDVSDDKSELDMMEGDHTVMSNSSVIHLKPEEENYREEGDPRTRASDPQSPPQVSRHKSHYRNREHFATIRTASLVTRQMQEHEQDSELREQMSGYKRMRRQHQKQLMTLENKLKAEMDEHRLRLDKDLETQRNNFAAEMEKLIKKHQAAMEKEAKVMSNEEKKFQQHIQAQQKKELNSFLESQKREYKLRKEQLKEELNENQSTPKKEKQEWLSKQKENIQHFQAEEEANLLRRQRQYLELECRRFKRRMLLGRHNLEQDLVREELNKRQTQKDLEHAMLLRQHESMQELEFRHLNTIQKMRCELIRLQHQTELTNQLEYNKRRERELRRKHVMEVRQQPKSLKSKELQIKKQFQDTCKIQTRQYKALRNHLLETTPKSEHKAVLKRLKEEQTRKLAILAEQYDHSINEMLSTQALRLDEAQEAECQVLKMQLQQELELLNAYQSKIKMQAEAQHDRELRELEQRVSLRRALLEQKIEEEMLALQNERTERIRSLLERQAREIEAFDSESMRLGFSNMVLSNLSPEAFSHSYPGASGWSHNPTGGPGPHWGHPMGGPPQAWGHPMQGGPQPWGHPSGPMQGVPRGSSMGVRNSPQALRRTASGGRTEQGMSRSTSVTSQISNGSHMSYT
To be noted: kinase TAOK1; for remaining activity at 1 µM: read-out: TAOK1 (% of control at 1 µM).

The target of experiment [4] is T4, panel of 442 kinases (Homo sapiens, UniProt Q9HBH9).
T4 construct: purchased Ambit Biosciences (scanMAXX KINOMEscan)
T4 sequence (Q9HBH9 whole entry): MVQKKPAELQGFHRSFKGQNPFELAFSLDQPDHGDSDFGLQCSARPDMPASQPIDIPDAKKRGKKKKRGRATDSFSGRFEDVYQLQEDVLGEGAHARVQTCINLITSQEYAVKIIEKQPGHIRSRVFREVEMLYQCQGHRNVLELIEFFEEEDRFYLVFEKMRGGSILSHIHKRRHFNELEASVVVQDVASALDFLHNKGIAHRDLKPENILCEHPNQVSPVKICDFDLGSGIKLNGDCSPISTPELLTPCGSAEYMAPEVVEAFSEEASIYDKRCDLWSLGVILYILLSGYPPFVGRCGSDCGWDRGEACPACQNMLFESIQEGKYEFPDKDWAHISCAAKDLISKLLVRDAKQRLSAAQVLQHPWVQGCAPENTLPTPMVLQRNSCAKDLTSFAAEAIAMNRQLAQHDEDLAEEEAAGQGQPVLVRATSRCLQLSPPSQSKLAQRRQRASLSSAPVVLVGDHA
Conditions: kinase MKNK2; for remaining activity at 1 µM: read-out: % of control at 1 µM.

Experiment [5] concerns the target T5, panel of 442 kinases (Homo sapiens, UniProt Q9NRP7).
T5 construct: purchased Ambit Biosciences (scanMAXX KINOMEscan)
T5 sequence (Q9NRP7 1-1315): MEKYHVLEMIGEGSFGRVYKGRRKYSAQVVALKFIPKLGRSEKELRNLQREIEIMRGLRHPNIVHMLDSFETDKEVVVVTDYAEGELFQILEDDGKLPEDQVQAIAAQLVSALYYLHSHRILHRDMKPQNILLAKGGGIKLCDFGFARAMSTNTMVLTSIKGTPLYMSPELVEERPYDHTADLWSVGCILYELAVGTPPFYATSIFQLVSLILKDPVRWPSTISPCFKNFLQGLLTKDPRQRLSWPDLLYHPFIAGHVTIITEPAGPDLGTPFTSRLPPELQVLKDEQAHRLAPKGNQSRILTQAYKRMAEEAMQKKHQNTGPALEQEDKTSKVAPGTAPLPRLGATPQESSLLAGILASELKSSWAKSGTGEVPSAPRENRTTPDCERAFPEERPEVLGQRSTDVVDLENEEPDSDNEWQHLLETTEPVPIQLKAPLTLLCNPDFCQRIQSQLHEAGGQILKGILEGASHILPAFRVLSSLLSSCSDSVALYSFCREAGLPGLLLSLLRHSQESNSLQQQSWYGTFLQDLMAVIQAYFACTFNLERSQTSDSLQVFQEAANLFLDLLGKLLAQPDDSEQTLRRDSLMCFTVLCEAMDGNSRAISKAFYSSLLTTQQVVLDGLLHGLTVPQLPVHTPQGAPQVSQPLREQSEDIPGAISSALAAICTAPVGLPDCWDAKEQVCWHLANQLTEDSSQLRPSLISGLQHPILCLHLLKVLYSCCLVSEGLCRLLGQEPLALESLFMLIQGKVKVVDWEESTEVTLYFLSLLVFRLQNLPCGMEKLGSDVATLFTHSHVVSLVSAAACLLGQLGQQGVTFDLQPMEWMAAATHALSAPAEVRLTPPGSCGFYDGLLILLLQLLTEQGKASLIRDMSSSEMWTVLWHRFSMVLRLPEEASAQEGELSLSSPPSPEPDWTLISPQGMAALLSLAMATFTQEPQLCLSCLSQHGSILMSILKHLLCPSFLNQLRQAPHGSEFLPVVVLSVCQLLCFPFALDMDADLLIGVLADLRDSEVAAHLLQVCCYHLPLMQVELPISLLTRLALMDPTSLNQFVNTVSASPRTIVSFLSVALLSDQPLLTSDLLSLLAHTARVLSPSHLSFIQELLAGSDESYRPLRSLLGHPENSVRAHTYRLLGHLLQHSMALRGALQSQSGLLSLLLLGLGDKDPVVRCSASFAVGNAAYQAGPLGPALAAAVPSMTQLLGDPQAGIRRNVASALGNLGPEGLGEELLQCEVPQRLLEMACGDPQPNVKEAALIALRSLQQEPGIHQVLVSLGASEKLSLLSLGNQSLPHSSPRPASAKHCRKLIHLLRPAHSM
To be noted: kinase STK36; for remaining activity at 1 µM: read-out: STK36 (% of control at 1 µM).

[6] abbreviates: 10 µM, read-out: % of control at 10 µM.

T1 sequence (P16591 whole entry): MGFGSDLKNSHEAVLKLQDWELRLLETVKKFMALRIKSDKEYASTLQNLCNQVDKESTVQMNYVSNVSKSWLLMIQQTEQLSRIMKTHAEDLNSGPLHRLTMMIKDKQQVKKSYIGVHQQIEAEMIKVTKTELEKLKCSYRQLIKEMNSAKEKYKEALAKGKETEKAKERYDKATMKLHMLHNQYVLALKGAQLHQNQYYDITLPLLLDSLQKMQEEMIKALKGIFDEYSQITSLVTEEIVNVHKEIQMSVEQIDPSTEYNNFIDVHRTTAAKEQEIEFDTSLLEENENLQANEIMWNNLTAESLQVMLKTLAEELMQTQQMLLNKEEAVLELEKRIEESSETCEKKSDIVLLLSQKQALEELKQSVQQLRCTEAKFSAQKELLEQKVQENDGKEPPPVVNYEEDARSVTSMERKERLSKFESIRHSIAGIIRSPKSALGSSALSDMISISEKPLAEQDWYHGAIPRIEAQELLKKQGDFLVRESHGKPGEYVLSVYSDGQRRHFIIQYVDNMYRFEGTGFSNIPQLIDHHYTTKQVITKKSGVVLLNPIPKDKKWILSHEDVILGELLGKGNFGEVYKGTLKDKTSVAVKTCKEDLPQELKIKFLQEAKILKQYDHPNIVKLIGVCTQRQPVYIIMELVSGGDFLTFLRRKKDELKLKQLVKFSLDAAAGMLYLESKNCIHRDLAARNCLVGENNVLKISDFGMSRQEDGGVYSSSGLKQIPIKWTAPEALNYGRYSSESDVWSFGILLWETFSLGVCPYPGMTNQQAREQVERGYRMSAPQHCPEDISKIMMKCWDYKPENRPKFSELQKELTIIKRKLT

As for `Nc1cc(C(F)(F)F)c(-c2cc(N3CCOCC3)nc(N3CCOCC3)n2)cn1` [Buparlisib], the remaining activity at 1 µM on panel of 442 kinases [1] came to 100%; at panel of 442 kinases [2] it was 98%; on panel of 442 kinases [3], 86%; at panel of 442 kinases [4], 90%; on panel of 442 kinases [5], 100%. The remaining activity at 10 µM on panel of 442 kinases [1] (setting [6]) is 100%; on panel of 442 kinases [2] (10 µM, read-out: SYK (% of control at 10 µM)), 100%; at panel of 442 kinases [3] (10 µM, read-out: TAOK1 (% of control at 10 µM)), 82%; at panel of 442 kinases [4] (setting [6]), 80%; on panel of 442 kinases [5] (10 µM, read-out: STK36 (% of control at 10 µM)), 100%.

As to `Cn1c(=O)n(-c2ccc(C(C)(C)C#N)cc2)c2c3cc(-c4cnc5ccccc5c4)ccc3ncc21` [Dactolisib, 2-methyl-2-[4-(3-methyl-2-oxo-8-quinolin-3-yl-2,3-dihydroimidazo[4,5-c]quinolin-1-yl)-phenyl] propionitrile], the remaining activity at 1 µM at panel of 442 kinases [1] was 60%; on panel of 442 kinases [2], 100%; on panel of 442 kinases [3], 70%; on panel of 442 kinases [4], 100%; at panel of 442 kinases [5], 89%.

Regarding `FC(F)c1nc2ccccc2n1-c1nc(N2CCOCC2)nc(N2CCOCC2)n1` [ZSTK474, 2-(difluoromethyl)-1-[4,6-di(4-morpholinyl)-1,3,5-triazin-2-yl]-1H-benzimidazole], the remaining activity at 1 µM turned out to be 55% on panel of 442 kinases [1]; 100% at panel of 442 kinases [2]; 74% at panel of 442 kinases [3]; 100% at panel of 442 kinases [4]; 95% on panel of 442 kinases [5].

In the case of `COc1ncc(-c2ccc3nccc(-c4ccnnc4)c3c2)cc1NS(=O)(=O)c1ccc(F)cc1F` [Omipalisib], the remaining activity at 1 µM was 100% at panel of 442 kinases [1]; 100% on panel of 442 kinases [2]; 100% on panel of 442 kinases [3]; 98% on panel of 442 kinases [4]; 85% on panel of 442 kinases [5].
